How the values were obtained:
Assay in all cases: relative viability (nuclei count vs DMSO), 5 days (fraction); higher = more cells survive
SGI-1776 + Alpelisib = compound: CN1CCC(CNc2ccc3ncc(-c4cccc(OC(F)(F)F)c4)n3n2)CC1 [SGI-1776] + Cc1nc(NC(=O)N2CCC[C@H]2C(N)=O)sc1-c1ccnc(C(C)(C)C(F)(F)F)c1 [Alpelisib] (partner 2 µM)
Method in brief: (§1)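 After 5 days of treatment, lung cancer cells in 1536-well plates were fixed and stained in a single step (final 0.05% Triton X-100, 1% formaldehyde, 1 ug/ml Hoechst) and their nuclei counted on 4× images. Treatment had been applied by pin tool the day after seeding as one drug alone or as a fixed anchor-drug dose with five library-drug doses (not always all listed) in √10 steps. Relative viability is the nuclei count of treated wells divided by that of vehicle wells, and values are medians of duplicate plates.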

Entinostat + Alpelisib = compound: Nc1ccccc1NC(=O)c1ccc(CNC(=O)OCc2cccnc2)cc1 [Entinostat] + Cc1nc(NC(=O)N2CCC[C@H]2C(N)=O)sc1-c1ccnc(C(C)(C)C(F)(F)F)c1 [Alpelisib] (partner 2 µM)
Method in brief: as §1

SGI-1776 + Crizotinib = compound: CN1CCC(CNc2ccc3ncc(-c4cccc(OC(F)(F)F)c4)n3n2)CC1 [SGI-1776] + C[C@@H](Oc1cc(-c2cnn(C3CCNCC3)c2)cnc1N)c1c(Cl)ccc(F)c1Cl [Crizotinib] (partner 1 µM)
Method in brief: as §1

[1] = compound: C1COCCN1C2=NC(=NC3=C2OC4=C3C=CC=N4)C5=CC(=CC=C5)NC(=O)C6=CN=C(C=C6)N + Cc1nc(NC(=O)N2CCC[C@H]2C(N)=O)sc1-c1ccnc(C(C)(C)C(F)(F)F)c1 [Alpelisib] (partner 2 µM)
Method in brief: as §1

Cell Line	relative viability (SGI-1776 + Alpelisib; first compound 0.08 µM)	relative viability (SGI-1776 + Alpelisib; first compound 0.8 µM)	relative viability (SGI-1776 + Alpelisib; first compound 2.53 µM)	relative viability (SGI-1776 + Alpelisib; first compound 8 µM)	relative viability (Entinostat + Alpelisib; first compound 0.02 µM)	relative viability (Entinostat + Alpelisib; first compound 0.06325 µM)	relative viability (Entinostat + Alpelisib; first compound 0.2 µM)	relative viability (Entinostat + Alpelisib; first compound 0.6325 µM)	relative viability (Entinostat + Alpelisib; first compound 2 µM)	relative viability (SGI-1776 + Crizotinib; first compound 0.08 µM)	relative viability (SGI-1776 + Crizotinib; first compound 0.8 µM)	relative viability (SGI-1776 + Crizotinib; first compound 2.53 µM)	relative viability (SGI-1776 + Crizotinib; first compound 8 µM)	relative viability ([1]; first compound 0.02 µM)	relative viability ([1]; first compound 0.06325 µM)	relative viability ([1]; first compound 0.2 µM)	relative viability ([1]; first compound 0.6325 µM)	relative viability ([1]; first compound 2 µM)
NCI-H1355	0.835	0.97	0.847	0.66	0.83	0.806	0.641	0.514	0.426	1.1	1.03	1.01	0.935	0.833	0.933	0.858	0.747	0.759
NCI-H1437	0.867	0.961	0.99	0.634	0.822	0.594	0.388	0.167	0.138	0.869	0.9	1.02	0.952	0.952	1.09	0.788	0.962	0.423
NCI-H1563	0.928	1	0.874	0.695	0.908	0.883	0.826	0.807	0.636	0.833	0.888	0.906	0.785	0.886	0.871	0.855	0.843	0.729
NCI-H1651	0.97	0.957	0.834	0.752	1.08	0.979	0.994	0.748	0.372	0.866	0.834	0.814	0.879	0.904	0.915	0.899	0.897	0.443
NCI-H1666	1.06	1	1.01	0.49	1.21	0.856	0.872	0.318	0.322	1.08	0.934	0.803	0.668	1.02	0.906	0.794	0.775	0.549
NCI-H1703	0.367	0.312	0.299	0.165	0.41	0.413	0.522	0.504	0.428	1.17	0.521	0.272	0.124	0.282	0.315	0.288	0.289	0.201
NCI-H1734	0.69	0.798	0.733	0.559	0.765	0.779	0.681	0.737	0.581	0.658	0.686	0.617	0.402	0.722	0.684	0.616	0.688	0.598
NCI-H1755	0.996	0.944	0.885	0.795	0.87	0.921	0.838	0.512	0.353	0.863	0.898	0.89	0.808	1.07	1	0.965	0.863	0.397
NCI-H1792	0.765	0.663	0.696	0.552	0.752	0.673	0.543	0.381	0.223	1.04	1.05	0.965	1.09	0.55	0.717	0.768	0.351	0.358
